In BindingDB's records for PubMed 9353393 (Torrey Pines Institute For Molecular Studies, 1997):
Residues, ends and D or L forms follow the SMILES beside them.

biological target: Nociceptin receptor (Mus musculus, UniProt P35377)
Sequence (P35377 whole entry): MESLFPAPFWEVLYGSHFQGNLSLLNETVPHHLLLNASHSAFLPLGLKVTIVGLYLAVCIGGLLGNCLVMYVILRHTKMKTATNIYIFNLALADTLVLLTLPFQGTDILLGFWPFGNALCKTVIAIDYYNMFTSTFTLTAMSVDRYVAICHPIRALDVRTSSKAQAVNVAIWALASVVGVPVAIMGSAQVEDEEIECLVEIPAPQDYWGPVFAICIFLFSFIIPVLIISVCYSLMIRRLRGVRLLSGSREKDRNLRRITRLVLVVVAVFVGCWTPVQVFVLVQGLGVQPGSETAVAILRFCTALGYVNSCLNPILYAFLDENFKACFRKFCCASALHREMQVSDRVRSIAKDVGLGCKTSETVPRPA

| SMILES | Ki [nM] |
| --- | --- |
| CC(=O)N[C@@H](CCCNC(=N)N)C(=O)N[C@@H](Cc1ccc(O)cc1)C(=O)N[C@@H](Cc1ccc(O)cc1)C(=O)N[C@@H](CCCCN)C(=O)N[C@@H](Cc1c[nH]c2ccccc12)C(=O)N[C@@H](CCCN=C(N)N)C(N)=O [Ac-RYYKWR-NH2] (Ac-RYYKWR-NH2) | 1.47 |
| CC(=O)N[C@@H](CCCNC(=N)N)C(=O)N[C@@H](Cc1ccc(O)cc1)C(=O)N[C@@H](Cc1ccc(O)cc1)C(=O)N[C@@H](CCCNC(=N)N)C(=O)N[C@@H](Cc1c[nH]c2ccccc12)C(=O)N[C@@H](CCCN=C(N)N)C(N)=O [Ac-RYYRWR-NH2] (Ac-RYYRWR-NH2) | 0.6 |
| CC(=O)N[C@@H](CCCNC(=N)N)C(=O)N[C@@H](Cc1ccc(O)cc1)C(=O)N[C@@H](Cc1ccc(O)cc1)C(=O)N[C@@H](CCCNC(=N)N)C(=O)N[C@@H](Cc1c[nH]c2ccccc12)C(=O)N[C@@H](CCCCN)C(N)=O [CAS_200959-47-3] (Ac-RYYRWK-NH2) | 0.71 |
| CC[C@H](C)[C@H](NC(=O)[C@H](CCCN=C(N)N)NC(=O)[C@H](Cc1ccc(O)cc1)NC(=O)[C@H](Cc1ccc(O)cc1)NC(=O)[C@H](CCCN=C(N)N)NC(C)=O)C(=O)N[C@@H](CCCCN)C(N)=O [CAS_200959-48-4] | 1.5 |
| CC(C)C[C@H](NC(=O)[C@H](CCCCN)NC(=O)[C@H](CCCN=C(N)N)NC(=O)[C@H](C)NC(=O)[C@H](CO)NC(=O)[C@H](CCCCN)NC(=O)[C@H](CCCN=C(N)N)NC(=O)[C@H](C)NC(=O)CNC(=O)[C@@H](NC(=O)[C@H](Cc1ccccc1)NC(=O)CNC(=O)CNC(=O)[C@@H](N)Cc1ccccc1)[C@@H](C)O)C(=O)N[C@@H](C)C(=O)N[C@@H](CC(N)=O)C(=O)N[C@@H](CCC(N)=O)C(=O)O [OFQ 1-17] | 0.43 |
